# Measurements as given in PubChem BioAssay AID743504 (Broad Institute, 2014).
# Activity calls are given as the source filed them.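 Rule for the calls: active = compounds blocking the hormone-driven reporter light with IC50 under 35 µM; inactive = IC50 above 35 µM, or no measured IC50.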
# Biological target: Bursicon receptor (Drosophila rickets, LGR2)
# Experiment: LGR2 bursicon receptor antagonists, dose response, cell-based, HEK293, CRE-luciferase, beta-gal normalized, dry powder, set 4 (AID 743504)
# Conditions: bursicon-stimulated, antagonist
row,SMILES,IC50
1,COc1ccc(NC(=O)N(C)C[C@@H]2OCCCC[C@H](C)Oc3ccc(NC(=O)C4CCCCC4)cc3C(=O)N([C@H](C)CO)C[C@@H]2C)cc1,< 35 µM
2,C[C@H](CO)N1C[C@H](C)[C@H](CN(C)C(=O)Nc2ccc3c(c2)OCO3)OCCCC[C@H](C)Oc2ccc(NC(=O)C3CCCCC3)cc2C1=O,< 35 µM

# Other lines, results leading:
row,IC50,SMILES
1,< 35 µM,C[C@H](CO)N1C[C@H](C)[C@H](CN(C)C(=O)Nc2ccc(F)cc2)OCCCC[C@H](C)Oc2ccc(NC(=O)C3CCCCC3)cc2C1=O
2,< 35 µM,C[C@H](CO)N1C[C@H](C)[C@H](CN(C)C(=O)Nc2ccccc2)OCCCC[C@H](C)Oc2ccc(NC(=O)C3CCCCC3)cc2C1=O
3,> 35 µM (inactive),C[C@@H]1CCCCO[C@H](CN(C)C(=O)Nc2ccc(F)cc2)[C@H](C)CN([C@@H](C)CO)C(=O)c2cc(NC(=O)C3CCCCC3)ccc2O1
